{
  "source": "paper PMC3536977",
  "about": "“4,6-α-Glucanotransferase activity occurs more widespread in Lactobacillus strains and constitutes a separate GH70 subfamily” (Applied Microbiology and Biotechnology, 2012)",
  "molecular_target": "T1, 4,6-αGT-ML4 (Limosilactobacillus reuteri, UniProt Q5SBN1)",
  "T1 construct": "full-length 180 kDa",
  "T1 sequence (Q5SBN1 entry or part of it)": "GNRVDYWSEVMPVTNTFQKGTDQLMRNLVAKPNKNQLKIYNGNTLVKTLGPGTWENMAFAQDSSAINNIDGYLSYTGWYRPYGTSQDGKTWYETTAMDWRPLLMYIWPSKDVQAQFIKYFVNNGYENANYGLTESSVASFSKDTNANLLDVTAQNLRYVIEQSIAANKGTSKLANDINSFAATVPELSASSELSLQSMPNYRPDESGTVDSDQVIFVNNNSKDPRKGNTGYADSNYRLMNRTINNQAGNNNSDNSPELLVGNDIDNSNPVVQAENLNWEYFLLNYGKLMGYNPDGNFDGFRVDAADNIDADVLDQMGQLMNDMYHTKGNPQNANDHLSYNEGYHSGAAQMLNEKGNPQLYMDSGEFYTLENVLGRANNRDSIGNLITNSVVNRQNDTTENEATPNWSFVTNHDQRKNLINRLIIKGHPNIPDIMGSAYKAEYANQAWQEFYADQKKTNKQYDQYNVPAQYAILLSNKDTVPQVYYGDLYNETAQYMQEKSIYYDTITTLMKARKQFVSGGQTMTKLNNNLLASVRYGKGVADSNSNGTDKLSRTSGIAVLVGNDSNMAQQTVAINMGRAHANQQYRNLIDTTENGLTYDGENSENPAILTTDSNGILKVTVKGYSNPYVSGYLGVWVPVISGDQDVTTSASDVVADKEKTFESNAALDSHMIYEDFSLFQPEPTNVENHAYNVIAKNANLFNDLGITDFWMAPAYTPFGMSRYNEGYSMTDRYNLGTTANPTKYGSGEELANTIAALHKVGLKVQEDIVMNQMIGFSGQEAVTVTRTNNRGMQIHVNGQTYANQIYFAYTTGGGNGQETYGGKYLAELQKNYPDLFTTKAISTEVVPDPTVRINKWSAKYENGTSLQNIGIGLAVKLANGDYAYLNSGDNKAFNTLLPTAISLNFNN",
  "assay": "1H NMR / TLC / HPAEC of product mixture",
  "assay_type": "biochemical",
  "conditions": "sodium acetate 25 mM pH 4.7, 1 mM CaCl2, 37 °C, 40 h, 25 μg/ml enzyme",
  "data": [
    {"smiles": "OC[C@H]1O[C@H](O[C@H]2[C@H](O)[C@@H](O)[C@@H](O[C@H]3[C@H](O)[C@@H](O)[C@@H](O[C@H]4[C@H](O)[C@@H](O)[C@@H](O[C@H]5[C@H](O)[C@@H](O)[C@@H](O[C@H]6[C@H](O)[C@@H](O)C(O)O[C@@H]6CO)O[C@@H]5CO)O[C@@H]4CO)O[C@@H]3CO)O[C@@H]2CO)[C@H](O)[C@@H](O)[C@@H]1O", "note": "(stereo partly shown) [DP6, maltohexaose]", "values": [
      {"measurement": "1H NMR / TLC / HPAEC of product mixture", "value": "generated from maltohexaose, showing a linkage ratio"}
    ]}
  ]
}
